Measurements as given in US7067521B2, “1-[alkyl], 1-[(heteroaryl)alkyl] and 1-[(aryl)alkyl]-7pyridinyl-imidazo[1,2-alpha]pyrimidin-5(1H)-one derivatives” (sanofi-aventis, priority 2000, dated 2006).
Where a name gives a salt, the structure may show the parent alone.

| Compound | melting point |
| --- | --- |
| O=c1cc(-c2ccncc2)nc2n(CCCCc3ccccc3)ccn12 (as salt: hydrochloride) [Compound 14, 1-[4-(phenyl)butyl]-7-pyridin-4-ylimidazo[1,2-a]pyrimidin-5(1H)-one] | 206 to 208 °C |
| O=c1cc(-c2ccncc2)nc2n(CC[C@H](O)C(F)(F)F)ccn12 [Compound 17, (S)-1-(4,4,4-trifluoro-3-hydroxybutyl)-7-pyridin-4-ylimidazo[1,2-a]pyrimidin-5(1H)-one] | 220 to 222 °C |
| O=c1cc(-c2cccnc2)nc2n(CCCc3ccccc3)ccn12 (as salt: hydrochloride) [Compound 15, 1-[3-(phenyl)propyl]-7-pyridin-3-ylimidazo[1,2-a]pyrimidin-5(1H)-one] | 184 to 185 °C |

Next, values leading:

| melting point | Compound |
| --- | --- |
| 187 to 188 °C | O=c1cc(-c2ccncc2)nc2n(CC=CC(F)(F)F)ccn12 [Compound 18, 1-(4,4,4-trifluorobut-2-enyl)-7-pyridin-4-ylimidazo[1,2-a]pyrimidin-5(1H)-one] |
| 221 to 222 °C | O=c1cc(-c2ccncc2)nc2n(C=CCC(F)(F)F)ccn12 [Compound 20, 1-(4,4,4-trifluorobut-1-enyl)-7-pyridin-4-ylimidazo[1,2-a]pyrimidin-5(1H)-one] |
| 208 to 211 °C | O=C(CCn1ccn2c(=O)cc(-c3ccncc3)nc12)c1ccccc1 (as salt: hydrochloride) [Compound 23, 1-(3-phenyl-3-oxo-propyl)-7-pyridin-4-ylimidazo[1,2-a]pyrimidin-5(1H)-one] |
